Measured values taken from US20260191793A1, “HBV SPECIFIC EXOSOMES AND USES THEREOF” (priority 2022, published 2026).
“Also recorded” adds a separate entry of the source.

Experiments:
HBV cccDNA = assay: HBV-infected HepG2-NTCP cells incubated with exosomes packaged with gRNA/Cas9 RNPs, HBV cccDNA; assay type: cell-based, Hepatitis B virus (HBV); details: delivery by engineered exosomes, 3 days (1×10^8 particles packaged with 40 μM gRNA/Cas9 RNPs)
Experimental: HepG2-NTCP cells were infected for 6 days with the supernatants of HepDE19 cells. Next, HepG2-NTCP cells were transfected for 3 days with gRNA5, gRNA9, gRNA5+gRNA9, or gRNAc RNPs (FIG. 4A) or incubated with exosomes carrying gRNA5, gRNA9, gRNA5+gRNA9, or gRNAc RNPs (1×10^8 particles packaged with 40 μM gRNA/Cas9 RNPs) (FIG. 4B), followed by measuring HBV cccDNA.
To test whether the synthetic gRNA/Cas9 can reduce newly formed HBV cccDNA in HepG2-NTCP cells, the cells with HBV particle-containing supernatants from HepDE19 cells (supernatants harvested 6 days after culture in Tet-free media) were infected. The HepG2-NTCP cells were infected with HBV particles for 6 days and then transfected with gRNA5, gRNA9, gRNA5 plus gRNA9 (in combination), or gRNAc RNPs for 3 days, followed by measuring HBV cccDNA. In another experiment, the infected HepG2-NTCP cells were incubated for 3 days with exosomes packaged with gRNA5, gRNA9, gRNA5 plus gRNA9 (in combination), or gRNAc RNPs, followed by measuring HBV cccDNA.

HBV DNA = assay: Mismatch sensitive T7 endonuclease 1 (T7E1) assay in HepDE19 cells; assay type: cell-based, Hepatitis B virus (HBV); details: HepDE19 cells transfected for 3 days, T7E1 digestion of PCR products
Text: DNA cleavage by CRISPR/Cas9 results in double-strand breaks (DSBs), which are repaired primarily by the non-homologous end-joining (NHEJ) pathway, resulting in indel mutations and transcriptionally active episomal variants. Thus, detecting DNA cleavage and indel mutations following CRISPR/Cas9-mediated DNA damage and repair is important for confirming its gene-editing effects. To validate the capability of the synthetic gRNA/Cas9 RNPs to introduce indel mutation and cleavage in HBV DNA in HepDE19 cells, a mismatch sensitive T7 endonuclease (T7E1) assay-was performed, following transfection of HepDE19 cells with gRNA5, gRNA9, gRNA5+gRNA9, or gRNAc RNPs. This assay allows for the detection of specific cleavage sites or indel mutations in the target gene (HBV DNA) in the treated cells. The indel mutagenesis was determined based on the DNA fragments detected after the gRNA/Cas9-mediated cleavage of the HBV DNA following T7E1 digestion of the specific PCR products.
The HBV DNA sequences surrounding gRNA-binding sites were amplified by PCR. […]
DNA cleavage by CRISPR/Cas9 results in double-strand breaks (DSBs), which are primarily repaired by the non-homologous end joining (NHEJ) repair pathway, resulting in gene mutations. […] The mutagenesis was determined based on the DNA fragments detected after the gRNA/Cas9-mediated cleavage of the HBV DNA following T7E1 digestion.

| Sequence | HBV cccDNA levels (HBV cccDNA) | cleaved products / DSBs in HBV DNA after T7E1 treatment (HBV DNA) |
| --- | --- | --- |
| GTTATCGCTGGATGTGTCTGNGG (guide GUUAUCGCUGGAUGUGUCUGNGG; complexed with Cas9 protein, chemistry not fully specified) [gRNA5, tested as synthetic gRNA/Cas9 RNP] | significantly reduced | cleaved products were observed; also recorded: DSBs were introduced |
| GGTCTCCATGCGACGTGCAGNGG [gRNA9] | significantly reduced | cleaved products were observed; also recorded: DSBs were introduced |
